Assay results published in patent US9115122B2, “Non-ATP dependent inhibitors of extracellular signal-regulated kinase (ERK)” (UNIVERSITY OF MARYLAND, BALTIMORE, priority 2012, dated 2015).

Experiments:
Assay in all cases: Cell proliferation WST-1 assay, single dose (Example 4)
Type in all cases: cell-based
Conditions in all cases: 100 μM, 48 hours
[1] = system: Jurkat T-cell leukemia cells
Method: (§1) In addition, compounds were tested in RPMI-7951 cells, which also contain mutated BRaf and are resistant to BRaf inhibitors due to the overexpression of MAP3K8 (the gene encoding COT/Tp12) that provides an alternative mechanism to indirectly or directly activate ERK proteins. […] For comparison, HeLa cervical carcinoma and Jurkat T-cell leukemia cells, which are p53 defective cancer cell lines but contain no known activating mutations in the ERK pathway, were studied. […] Cell proliferation was evaluated by water soluble tetrazolium-1 (WST-1) assay as previously described. Briefly, cells (˜5000/well) were seeded in 96 well plates, allowed to recover for 16-20 hours, and then treated with the indicated test compound for 48 hours. After incubation, WST-1 reagent was added and absorbance was read at 450 nm with background subtraction taken at 650 nm. Values were normalized to the control (DMSO only treated) cells.

[2] = system: SK-MEL-28 melanoma cells
Method: as §1

[3] = system: RPMI-7951 melanoma cells
Method: as §1

[4] = system: HeLa cervical carcinoma cells
Method: as §1

[5] = system: HL-60 leukemic cells
Method: as §1

[6] = system: A375 melanoma cells
Method: as §1

| SMILES | Cell Viability (% of Vehicle) Jurkat [1] | Cell Viability (% of Vehicle) SK-MEL-28 [2] | Cell Viability (% of Vehicle) RPMI-7951 [3] | Cell Viability (% of Vehicle) HeLa [4] | Cell Viability (% of Vehicle) HL-60 [5] | Cell Viability (% of Vehicle) A375 [6] |
| --- | --- | --- | --- | --- | --- | --- |
| CCOc1ccc(/C=C2\SC(=O)N(CCNC(=O)OCc3ccccc3)C2=O)cc1 [Compound 26d, (Z)-benzyl (2-(5-(4-ethoxybenzylidene)-2,4-dioxothiazolidin-3-yl)ethyl)carbamate] | 112 ± 5 % of Vehicle | 97 ± 1 % of Vehicle | 54 ± 6 % of Vehicle | 98 ± 6 % of Vehicle | 85 ± 27 % of Vehicle | 103 ± 3 % of Vehicle |
| CCOc1ccc(/C=C2\SC(=O)N(CCNC(=O)OCC3c4ccccc4-c4ccccc43)C2=O)cc1 [Compound 26e, (Z)-(9H-fluoren-9-yl)methyl (2-(5-(4-ethoxybenzylidene)-2,4-dioxothiazolidin-3-yl)ethyl)carbamate] | 139 ± 14 % of Vehicle | 29 ± 7 % of Vehicle | 27 ± 3 % of Vehicle | 85 ± 4 % of Vehicle | 103 ± 13 % of Vehicle | 43 ± 3 % of Vehicle |
| CCOc1ccc(/C=C2\SC(=O)N(CCNS(C)(=O)=O)C2=O)cc1 [Compound 27a, (Z)—N-(2-(5-(4-ethoxybenzylidene)-2,4-dioxothiazolidin-3-yl)ethyl)methanesulfonamide] | 85 ± 3 % of Vehicle | 87 ± 2 % of Vehicle | 68 ± 3 % of Vehicle | 82 ± 1 % of Vehicle | 82 ± 44 % of Vehicle | 94 ± 2 % of Vehicle |
| CCOc1ccc(/C=C2\SC(=O)N(CCNS(=O)(=O)c3ccc(C#N)cc3)C2=O)cc1 [Compound 27b, (Z)-4-cyano-N-(2-(5-(4-ethoxybenzylidene)-2,4-dioxothiazolidin-3-yl)ethyl)benzenesulfonamide] | 103 ± 3 % of Vehicle | 95 ± 3 % of Vehicle | 99 ± 4 % of Vehicle | 90 ± 4 % of Vehicle | 101 ± 52 % of Vehicle | 109 ± 6 % of Vehicle |
| CCOc1ccc(/C=C2\SC(=O)N(CCNS(=O)(=O)c3cn(C)cn3)C2=O)cc1 [Compound 27c, (Z)—N-(2-(5-(4-ethoxybenzylidene)-2,4-dioxothiazolidin-3-yl)ethyl)-1-methyl-1H-imidazole-4-sulfonamide] | 97 ± 4 % of Vehicle | 92 ± 5 % of Vehicle | 118 ± 6 % of Vehicle | 91 ± 5 % of Vehicle | 51 ± 31 % of Vehicle | 107 ± 2 % of Vehicle |
| CCCN1C(=O)S/C(=C\c2ccc(OCC)cc2)C1=O [Compound 28d, (Z)-5-(4-ethoxybenzylidene)-3-propylthiazolidine-2,4-dione] | 101 ± 5 % of Vehicle | 101 ± 3 % of Vehicle | 116 ± 10 % of Vehicle | 96 ± 4 % of Vehicle | 80 ± 26 % of Vehicle | 119 ± 5 % of Vehicle |
| CCOc1ccc(/C=C2\SC(=O)N(CCO)C2=O)cc1 [Compound 28e, (Z)-5-(4-ethoxybenzylidene)-3-(2-hydroxyethyl)thiazolidine-2,4-dione] | 101 ± 4 % of Vehicle | 91 ± 1 % of Vehicle | 137 ± 8 % of Vehicle | 91 ± 2 % of Vehicle | 91 ± 19 % of Vehicle | 116 ± 4 % of Vehicle |
| CCOc1ccc(/C=C2\SC(=O)N(CCCl)C2=O)cc1 [Compound 28f, (Z)-3-(2-chloroethyl)-5-(4-ethoxybenzylidene)thiazolidine-2,4-dione] | 99 ± 5 % of Vehicle | 97 ± 3 % of Vehicle | 128 ± 3 % of Vehicle | 87 ± 4 % of Vehicle | 99 ± 14 % of Vehicle | 113 ± 9 % of Vehicle |
| CCOc1ccc(/C=C2\SC(=O)N(CC(=O)OC(C)(C)C)C2=O)cc1 [Compound 28g, (Z)-tert-butyl 2-(5-(4-ethoxybenzylidene)-2,4-dioxothiazolidin-3-yl)acetate] | 108 ± 3 % of Vehicle | 101 ± 2 % of Vehicle | 110 ± 3 % of Vehicle | 88 ± 7 % of Vehicle | 95 ± 18 % of Vehicle | 117 ± 7 % of Vehicle |
| CCOc1ccc(/C=C2\SC(=O)N(CC(=O)O)C2=O)cc1 [Compound 28h, (Z)-2-(5-(4-ethoxybenzylidene)-2,4-dioxothiazolidin-3-yl)acetic acid] | 108 ± 3 % of Vehicle | 106 ± 1 % of Vehicle | 133 ± 9 % of Vehicle | 104 ± 3 % of Vehicle | 97 ± 27 % of Vehicle | 122 ± 6 % of Vehicle |
| CCOc1ccc(/C=C2\SC(=O)N(Cc3ccccc3)C2=O)cc1 [Compound 28i, (Z)-3-benzyl-5-(4-ethoxybenzylidene)thiazolidine-2,4-dione] | 105 ± 4 % of Vehicle | 90 ± 3 % of Vehicle | 114 ± 20 % of Vehicle | 95 ± 4 % of Vehicle | 65 ± 1 % of Vehicle | 110 ± 4 % of Vehicle |
| CCOc1ccc(/C=C2\SC(=O)N(Cc3ccccn3)C2=O)cc1 [Compound 28j, (Z)-5-(4-ethoxybenzylidene)-3-(pyridin-2-ylmethyl)thiazolidine-2,4-dione] | 101 ± 7 % of Vehicle | 95 ± 3 % of Vehicle | 114 ± 5 % of Vehicle | 89 ± 5 % of Vehicle | 89 ± 31 % of Vehicle | 124 ± 6 % of Vehicle |
| CCOc1ccc(/C=C2\SC(=O)N(Cc3cccnc3)C2=O)cc1 [Compound 28k, (Z)-5-(4-ethoxybenzylidene)-3-(pyridin-3-ylmethyl)thiazolidine-2,4-dione] | 98 ± 2 % of Vehicle | 79 ± 4 % of Vehicle | 102 ± 2 % of Vehicle | 80 ± 2 % of Vehicle | 65 ± 12 % of Vehicle | 105 ± 4 % of Vehicle |
| CCOc1ccc(/C=C2\SC(=O)N(Cc3ccncc3)C2=O)cc1 [Compound 28l, (Z)-5-(4-ethoxybenzylidene)-3-(pyridin-4-ylmethyl)thiazolidine-2,4-dione] | 96 ± 11 % of Vehicle | 79 ± 3 % of Vehicle | 102 ± 3 % of Vehicle | 81 ± 5 % of Vehicle | 82 ± 54 % of Vehicle | 105 ± 12 % of Vehicle |
| CCOc1ccc(/C=C2\SC(=O)N(Cc3ccc(C#N)cc3)C2=O)cc1 [Compound 28m, (Z)-4-((5-(4-ethoxybenzylidene)-2,4-dioxothiazolidin-3-yl)methyl)benzonitrile] | 103 ± 11 % of Vehicle | 97 ± 7 % of Vehicle | 106 ± 8 % of Vehicle | 95 ± 3 % of Vehicle | 86 ± 37 % of Vehicle | 108 ± 3 % of Vehicle |
| CCOc1ccc(/C=C2\SC(=O)N(Cc3ccc([N+](=O)[O-])cc3)C2=O)cc1 [Compound 28n, (Z)-5-(4-ethoxybenzylidene)-3-(4-nitrobenzyl)thiazolidine-2,4-dione] | 101 ± 9 % of Vehicle | 104 ± 3 % of Vehicle | 119 ± 13 % of Vehicle | 97 ± 9 % of Vehicle | 97 ± 23 % of Vehicle | 117 ± 3 % of Vehicle |
| CCOc1ccc(/C=C2\SC(=O)N(Cc3ccc(N)cc3)C2=O)cc1 [Compound 28o, (Z)-3-(4-aminobenzyl)-5-(4-ethoxybenzylidene)thiazolidine-2,4-dione] | 97 ± 7 % of Vehicle | 94 ± 5 % of Vehicle | 102 ± 23 % of Vehicle | 89 ± 9 % of Vehicle | 86 ± 21 % of Vehicle | 119 ± 6 % of Vehicle |
